Counter-ions that a name gives are not always drawn. Like-named read-outs stand apart in the source and are kept apart here.
Tested on: Aβ production (Aβ1-40, 1-42 in culture supernatant)
Assay: Aβ assay in cerebral cortex nerve cells induced from familial AD patient iPS cells (PSEN1 G384A)
Type: cell-based, human
[1] = added at 0.0016, 0.008, 0.04, 0.2, 1, 5, 25 μM to cerebral cortex nerve cells, 48 hr

Row | Compound | change of Aβ production [1] | Aβ production-lowering action | also measured
1 | C=CCN1CCc2nc(N)sc2CC1 [Talipexole] | none of the compounds changed Aβ production |  | 
2 | CCCN[C@H]1CCc2nc(N)sc2C1 [Pramipexole dihydrochloride] | none of the compounds changed Aβ production |  | 
3 | CC(C)[C@@]1(NC(=O)[C@@H]2C=C3c4cccc5[nH]cc(c45)C[C@H]3N(C)C2)O[C@@]2(O)[C@@H]3CCCN3C(=O)[C@H](Cc3ccccc3)N2C1=O [Ergocristine, ergocristine] |  | showed a similar Aβ production-lowering action | 
4 | Cc1cccc(C(=O)NCN2CCN(c3ccccc3C#N)CC2)c1 [PD168077] | none of the compounds changed Aβ production |  | 
5 | Oc1cc2c(cc1O)C(c1ccccc1)CNCC2 (stereo not drawn) [SKF38393] | none of the compounds changed Aβ production |  | 
6 | CCCN(CCC)CCc1cccc2c1CC(=O)N2 [Ropinirole hydrochloride] | none of the compounds changed Aβ production |  | 
7 | CC(C)C[C@H]1C(=O)N2CCC[C@H]2[C@]2(O)O[C@](NC(=O)[C@@H]3C=C4c5cccc6[nH]c(Br)c(c56)C[C@H]4N(C)C3)(C(C)C)C(=O)N12 [bromocriptine] |  | decreases the production of Aβ | Aβ42/40 ratio: lower Aβ42/40 ratio; lowering of Aβ42 subtype compared with Aβ40: more efficiently reduced the production of Aβ42 subtype than Aβ40
8 | CC(C)C[C@H]1C(=O)N2CCC[C@H]2[C@]2(O)O[C@](NC(=O)[C@@H]3C=C4c5cccc6[nH]cc(c56)C[C@H]4N(C)C3)(C(C)C)C(=O)N12 [Alpha-Ergocryptine, α-ergocryptine] |  | showed an Aβ production-lowering action similar to that of bromocriptine | Aβ42/40 ratio: did not change; lowering of Aβ42 subtype compared with Aβ40: lowered Aβ40 and 42 to the same degree
9 | CN1C[C@H](C(=O)N[C@]2(C)O[C@@]3(O)[C@@H]4CCCN4C(=O)[C@H](Cc4ccccc4)N3C2=O)C[C@@H]2c3cccc4[nH]cc(c34)C[C@H]21.CS(=O)(=O)O [Dihydroergotamine Mesylate, dihydroergotamine] |  | showed a similar Aβ production-lowering action | 
10 | C=CCN1C[C@H](C(=O)N(CCCN(C)C)C(=O)NCC)C[C@@H]2c3cccc4[nH]cc(c34)C[C@H]21 [Cabergoline] |  |  | Aβ production-lowering action (at 25 μM, cerebral cortex nerve cells, 48 hr): showed an Aβ production-lowering action
11 | CC(C)[C@@]1(NC(=O)[C@@H]2C[C@@H]3c4cccc5[nH]cc(c45)C[C@H]3N(C)C2)O[C@@]2(O)[C@@H]3CCCN3C(=O)[C@H](Cc3ccccc3)N2C1=O [Dihydroergocristine mesylate, dihydroergocristine] |  | showed a similar Aβ production-lowering action | 
12 | Cl.NCCc1ccc(O)c(O)c1 [dopamine hydrochloride] |  |  | change of Aβ production: none of the compounds changed Aβ production
13 | CCCN1C[C@H](CSC)C[C@@H]2c3cccc4[nH]cc(c34)C[C@H]21 [Pergolide mesylate] |  |  | Aβ production-lowering action (at 5, 25 μM, cerebral cortex nerve cells, 48 hr): showed an Aβ production-lowering action
14 | CN1C[C@H](C(=O)N[C@]2(C)O[C@@]3(O)[C@@H]4CCCN4C(=O)[C@H](Cc4ccccc4)N3C2=O)C=C2c3cccc4[nH]cc(c34)C[C@H]21.CN1C[C@H](C(=O)N[C@]2(C)O[C@@]3(O)[C@@H]4CCCN4C(=O)[C@H](Cc4ccccc4)N3C2=O)C=C2c3cccc4[nH]cc(c34)C[C@H]21.O=C(O)C(O)C(O)C(=O)O [Ergotamine Tartrate, ergotamine] |  | showed a similar Aβ production-lowering action | 

From patent US11554116B2, “Agent for preventing and/or treating alzheimer's disease” (KYOTO UNIVERSITY, priority 2017, dated 2023)
